pIC50: −log10 of the molar value.
Target: human LTA4 hydrolase (Homo sapiens (Human), UniProt P09960)
Experiment: LTA4H Enzyme assay (cleavage of Arg-AMC, fluorescence)
Assay type: biochemical
Settings: LTA4H Enzyme 1 nM, Arg-AMC substrate 50 μM, room temperature 1 h
Description: The compounds of the invention are assessed for the ability to interact with human LTA4 hydrolase in an enzymatic assay that measures the ability of the enzyme to cleave the peptide bond of arginyl-aminomethylcoumarin (Arg-AMC). LTA4H Enzyme (1 nM final), Arg-AMC substrate (50 μM final), and compound are combined in a reaction buffer (50 mM Tris-HCl (pH 7.5), 100 mM KCl, 0.5% bovine serum albumin) at room temperature for 1 h. The formation of product is assessed by measuring the fluorescence of aminomethylcoumarin product (excitation wavelength 380 nm/emission wavelength 460 nm).

Sequence of human LTA4 hydrolase (P09960 whole entry): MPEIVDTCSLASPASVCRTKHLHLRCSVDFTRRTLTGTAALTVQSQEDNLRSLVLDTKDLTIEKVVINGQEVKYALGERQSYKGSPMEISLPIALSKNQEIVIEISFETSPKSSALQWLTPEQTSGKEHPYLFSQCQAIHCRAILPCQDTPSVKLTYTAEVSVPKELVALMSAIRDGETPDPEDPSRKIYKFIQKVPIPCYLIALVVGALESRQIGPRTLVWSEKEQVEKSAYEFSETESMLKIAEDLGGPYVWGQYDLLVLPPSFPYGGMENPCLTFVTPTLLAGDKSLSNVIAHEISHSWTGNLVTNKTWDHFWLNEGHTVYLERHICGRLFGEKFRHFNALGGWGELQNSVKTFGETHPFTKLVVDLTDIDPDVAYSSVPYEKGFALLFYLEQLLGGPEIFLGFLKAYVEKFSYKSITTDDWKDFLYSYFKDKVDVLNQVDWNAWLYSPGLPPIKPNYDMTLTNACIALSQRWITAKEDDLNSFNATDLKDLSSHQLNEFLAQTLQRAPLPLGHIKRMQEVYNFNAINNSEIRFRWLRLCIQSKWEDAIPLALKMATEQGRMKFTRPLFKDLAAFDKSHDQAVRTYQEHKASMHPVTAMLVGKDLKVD

| SMILES | pIC50 |
| --- | --- |
| O=C(O)C1CCCN(Cc2ccc(C3COc4ccccc4O3)cc2)C1 (centres unmarked) [Example 113, 1-[4-(2,3-dihydro-1,4-benzodioxin-2-yl)benzyl]piperidine-3-carboxylic acid] | 8.60 |
| CC(=O)N1CCN(Cc2ccc(C3COc4ccccc4O3)cc2)CC1 (centres unmarked) [Example 11, 1-{4-[4-(2,3-dihydro-1,4-benzodioxin-2-yl)benzyl]piperazin-1-yl}ethanone] | 8.53 |
| N#CC1CN(Cc2ccc(C3COc4ccccc4O3)cc2)C1 (centres unmarked) [Example 46, 1-[4-(2,3-dihydro-1,4-benzodioxin-2-yl)benzyl]azetidine-3-carbonitrile] | 7.61 |
| CC[C@@H](C)NCc1ccc(C2COc3ccccc3O2)cc1 (stereo partly drawn) [Example 24, (2R)-N-[4-(2,3-dihydro-1,4-benzodioxin-2-yl)benzyl]butan-2-amine] | 8.23 |
| O=C1NCCC12CCN(Cc1ccc([C@@H]3COc4ccccc4O3)cc1)CC2 [Example 195, 8-[(R)-4-(2,3-Dihydro-benzo[1,4]dioxin-2-yl)-benzyl]-2,8-diaza-spiro[4.5]decan-1-one] | 8.80 |
| c1ccc2c(c1)OC[C@H](c1ccc(CN3CCOCC3)cc1)O2 [Example 198, 4-[(S)-4-(2,3-dihydro-benzo[1,4]dioxin-2-yl)-benzyl]-morpholine] | 8.64 |
| COCCN(C)Cc1ccc(C2COc3ccccc3O2)cc1 (centres unmarked) [Example 33, N-[4-(2,3-dihydro-1,4-benzodioxin-2-yl)benzyl]-2-methoxy-N-methylethanamine] | 8.50 |
| O[C@H]1CCN(Cc2ccc(C3COc4ccccc4O3)cc2)C1 (mixture of isomers) [Example 9, (3S)-1-[4-(2,3-dihydro-1,4-benzodioxin-2-yl)benzyl]pyrrolidin-3-ol] | 8.83 |
| COC1CCN(Cc2ccc(C3COc4ccccc4O3)cc2)C1 (centres unmarked) [Example 47, 1-[4-(2,3-dihydro-1,4-benzodioxin-2-yl)benzyl]-3-methoxypyrrolidine] | 8.76 |
| COC1CN(Cc2ccc(C3COc4ccccc4O3)cc2)C1 (centres unmarked) [Example 36, 1-[4-(2,3-dihydro-1,4-benzodioxin-2-yl)benzyl]-3-methoxyazetidine] | 8.35 |
| OC1CCN(Cc2ccc([C@@H]3COc4ccccc4O3)cc2)CC1 [Example 193, (R)-1-[4-(2,3-Dihydro-benzo[1,4]dioxin-2-yl)-benzyl]-piperidin-4-ol] | 8.27 |
| CN1CCCN(Cc2ccc(C3COc4ccccc4O3)cc2)CC1 (centres unmarked) [Example 30, 1-[4-(2,3-dihydro-1,4-benzodioxin-2-yl)benzyl]-4-methyl-1,4-diazepane] | 8.75 |
| O=C(CNCc1ccc(C2COc3ccccc3O2)cc1)N1CCCC1 (centres unmarked) [Example 12, 2-{[4-(2,3-dihydro-1,4-benzodioxin-2-yl)benzyl]amino}-1-(pyrrolidin-1-yl)ethanone] | 7.99 |
| c1ccc2c(c1)OCC(c1ccc(CN3CCOCC3)cc1)O2 (centres unmarked) [Example 2, 4-[4-(2,3-dihydro-1,4-benzodioxin-2-yl)benzyl]morpholine] | 8.61 |
| OCC1CCN(Cc2ccc(C3COc4ccccc4O3)cc2)CC1 (centres unmarked) [Example 27, {1-[4-(2,3-dihydro-1,4-benzodioxin-2-yl)benzyl]piperidin-4-yl}methanol] | 8.92 |
| O=S1(=O)CCN(Cc2ccc(C3COc4ccccc4O3)cc2)CC1 (centres unmarked) [Example 7, 4-[4-(2,3-dihydro-1,4-benzodioxin-2-yl)benzyl]thiomorpholine 1,1-dioxide] | 8.55 |
| OCCCC1CCN(Cc2ccc(C3COc4ccccc4O3)cc2)CC1 (centres unmarked) [Example 29, 3-{1-[4-(2,3-dihydro-1,4-benzodioxin-2-yl)benzyl]piperidin-4-yl}propan-1-ol] | 8.69 |
| c1ccc2c(c1)OC[C@@H](c1ccc(CN3CCCC3)cc1)O2 [Example 197, 1-[(R)-4-(2,3-dihydro-benzo[1,4]dioxin-2-yl)-benzyl]-pyrrolidine] | 8.57 |
| F[C@H]1CCN(Cc2ccc(C3COc4ccccc4O3)cc2)C1 (stereo partly drawn) [Example 115, (3S)-1-[4-(2,3-dihydro-1,4-benzodioxin-2-yl)benzyl]-3-fluoropyrrolidine] | 8.52 |
| CN(C)C(=O)CC1CCN(Cc2ccc(C3COc4ccccc4O3)cc2)CC1 (centres unmarked) [Example 38, 2-{1-[4-(2,3-dihydro-1,4-benzodioxin-2-yl)benzyl]piperidin-4-yl}-N,N-dimethylacetamide] | 8.94 |
| CS(=O)(=O)C1CCN(Cc2ccc(C3COc4ccccc4O3)cc2)CC1 (centres unmarked) [Example 39, 1-[4-(2,3-dihydro-1,4-benzodioxin-2-yl)benzyl]-4-(methylsulfonyl)piperidine] | 8.67 |
| FC1CCN(Cc2ccc(C3COc4ccccc4O3)cc2)CC1 (centres unmarked) [Example 5, 1-[4-(2,3-dihydro-1,4-benzodioxin-2-yl)benzyl]-4-fluoropiperidine] | 8.53 |
| CC1(C)CCN(Cc2ccc(C3COc4ccccc4O3)cc2)CC1 (centres unmarked) [Example 3, 1-[4-(2,3-dihydro-1,4-benzodioxin-2-yl)benzyl]-4,4-dimethylpiperidine] | 8.59 |
| c1ccc2c(c1)OCC(c1ccc(CN3CCn4cnnc4C3)cc1)O2 (racemic) [Example 16, 7-[4-(2,3-dihydro-1,4-benzodioxin-2-yl)benzyl]-5,6,7,8-tetrahydro[1,2,4]triazolo[4,3-a]pyrazine] | 8.63 |

Now from value to compound:

| pIC50 | SMILES |
| --- | --- |
| 9.13 | O=C1NCCC12CCN(Cc1ccc(C3COc4ccccc4O3)cc1)CC2 (centres unmarked) [Example 4, 8-[4-(2,3-dihydro-1,4-benzodioxin-2-yl)benzyl]-2,8-diazaspiro[4.5]decan-1-one] |
| 9.42 | c1ccc2c(c1)OCC(c1ccc(CN3CCCC3)cc1)O2 (racemic) [Example 1, 1-[4-(2,3-dihydro-1,4-benzodioxin-2-yl)benzyl]pyrrolidine] |
| 9.09 | c1ccc2c(c1)OCC(c1ccc(CN3CCCCCC3)cc1)O2 (centres unmarked) [Example 40, 1-[4-(2,3-dihydro-1,4-benzodioxin-2-yl)benzyl]azepane] |
| 9.22 | O=C1CCCN1CC1CCN(Cc2ccc(C3COc4ccccc4O3)cc2)CC1 (centres unmarked) [Example 50, 1-({1-[4-(2,3-dihydro-1,4-benzodioxin-2-yl)benzyl]piperidin-4-yl}methyl)pyrrolidin-2-one] |
| 9.82 | O=C1NCCC12CCN(Cc1ccc([C@H]3COc4ccccc4O3)cc1)CC2 [Example 194, 8-[(S)-4-(2,3-Dihydro-benzo[1,4]dioxin-2-yl)-benzyl]-2,8-diaza-spiro[4.5]decan-1-one] |
| 9.09 | CN(C)C(=O)C1CCN(Cc2ccc(C3COc4ccccc4O3)cc2)CC1 (centres unmarked) [Example 51, 1-[4-(2,3-dihydro-1,4-benzodioxin-2-yl)benzyl]-N,N-dimethylpiperidine-4-carboxamide] |
| 9.12 | O=C1CCCN1CC1CCCN(Cc2ccc(C3COc4ccccc4O3)cc2)C1 (racemic) [Example 10, 1-({1-[4-(2,3-dihydro-1,4-benzodioxin-2-yl)benzyl]piperidin-3-yl}methyl)pyrrolidin-2-one] |
| 9.80 | CS(=O)(=O)NC1CCN(Cc2ccc(C3COc4ccccc4O3)cc2)CC1 (stereo not drawn) [Example 48, N-{l-[4-(2,3-dihydro-1,4-benzodioxin-2-yl)benzyl]piperidin-4-yl}methanesulfonamide] |
| 9.37 | O=C(O)CCCC1CCN(Cc2ccc(C3COc4ccccc4O3)cc2)CC1 (racemic) [Example 26, 4-{1-[4-(2,3-dihydro-1,4-benzodioxin-2-yl)benzyl]piperidin-4-yl}butanoic acid] |
| 8.94 | c1cnc2c(c1)OCC(c1ccc(CN3CCOCC3)cc1)O2 (racemic) [Example 18, 3-[4-(morpholin-4-ylmethyl)phenyl]-2,3-dihydro[1,4]dioxino[2,3-b]pyridine] |
| 9.11 | O=S1(=O)CCN(Cc2ccc(C3COc4cccnc4O3)cc2)CC1 (racemic) [Example 17, 3-{4-[(1,1-dioxidothiomorpholin-4-yl)methyl]phenyl}-2,3-dihydro[1,4]dioxino[2,3-b]pyridine] |
| 9.59 | O=C1NC(=O)C2(CCN(Cc3ccc(C4COc5ccccc5O4)cc3)CC2)N1 (centres unmarked) [Example 35, 8-[4-(2,3-dihydro-1,4-benzodioxin-2-yl)benzyl]-1,3,8-triazaspiro[4.5]decane-2,4-dione] |
| 8.98 | O=C(C1CCN(Cc2ccc(C3COc4ccccc4O3)cc2)CC1)N1CCOCC1 (racemic) [Example 37, {1-[4-(2,3-dihydro-1,4-benzodioxin-2-yl)benzyl]piperidin-4-yl}(morpholin-4-yl)methanone] |
| 9.44 | c1cnc2c(c1)OCC(c1ccc(CN3CCCC3)cc1)O2 (racemic) [Example 15, 3-[4-(pyrrolidin-1-ylmethyl)phenyl]-2,3-dihydro[1,4]dioxino[2,3-b]pyridine] |
| 9.38 | NC(=O)NC1CCN(Cc2ccc(C3COc4ccccc4O3)cc2)CC1 (racemic) [Example 53, 1-{1-[4-(2,3-dihydro-1,4-benzodioxin-2-yl)benzyl]piperidin-4-yl}urea] |
| 9.11 | NC(=O)C1CCCN(Cc2ccc(C3COc4ccccc4O3)cc2)C1 (centres unmarked) [Example 114, 1-[4-(2,3-dihydro-1,4-benzodioxin-2-yl)benzyl]piperidine-3-carboxamide] |
| 9.41 | c1ccc2c(c1)OC[C@H](c1ccc(CN3CCCC3)cc1)O2 [Example 196, 1-[(S)-4-(2,3-dihydro-benzo[1,4]dioxin-2-yl)-benzyl]-pyrrolidine] |
| 9.05 | CCN(CC)Cc1ccc(C2COc3ccccc3O2)cc1 (centres unmarked) [Example 45, N-[4-(2,3-dihydro-1,4-benzodioxin-2-yl)benzyl]-N-ethylethanamine] |
| 9.12 | O=C(NCCO)C1CCN(Cc2ccc(C3COc4ccccc4O3)cc2)CC1 (racemic) [Example 52, 1-[4-(2,3-dihydro-1,4-benzodioxin-2-yl)benzyl]-N-(2-hydroxyethyl)piperidine-4-carboxamide] |
| 9.16 | CN(CCc1ccccn1)Cc1ccc(C2COc3ccccc3O2)cc1 (centres unmarked) [Example 42, N-[4-(2,3-dihydro-1,4-benzodioxin-2-yl)benzyl]-N-methyl-2-(pyridin-2-yl)ethanamine] |

Source: US9662339B2, “Benzodioxane inhibitors of leukotriene production for combination therapy” (Boehringer Ingelheim International GmbH, priority 2012, dated 2017)
